Measurements as given in patent US9371331B2, “Modulators of methyl modifying enzymes, compositions and uses thereof” (Constellation Pharmaceuticals, Inc., priority 2012, dated 2016).
pEC50, pIC50: −log10 of the molar value. Where two headings read alike, the source gives them in different places.

Columns and labels:
[1] = target: EZH2 (rPRC2) (Homo sapiens, UniProt Q15910); assay: EZH2 assay: rPRC2, biotinylated oligonucleosomes, 3H SAM methyl transfer (FlashPlate scintillation); assay type: biochemical; details: biotinylated oligonucleosome substrate
[2] = system: H3K27me3 mark in HeLa cells; assay: H3K27me3 Alpha Hela Assay (AlphaLISA); assay type: cell-based; details: Homo sapiens, 72 hrs, read-out: H3K27me3_Alpha_HeLa_ (EC50)
Experimental: H3K27me3 Alpha Hela Assay (AlphaLISA).
Ten different doses of each test compound (in a series of 3-fold dilutions) were plated in duplicate 384-well tissue culture treated plates (Catalog #781080; Greiner Bio One; Monroe, N.C.). Hela cells grown in culture were trypsinized and counted using a Countess® cell counter (Catalog #C10281; Life Technologies, Grand Island, N.Y.). Cell were diluted to 67,000 cells per mL in 10% DMEM (Catalog #10569-010 Life Technologies. Grand Island, N.Y.) and 15 μL (1,000 cells) were plated into each well using the Biotek MicroFlo™ Select Dispenser (BioTek Instruments. Inc. Vermont, USA),) of the 384-well plate. Plates were incubated at 37° C./5% CO2 for 72 hrs. One of the duplicate plates was processed for HeLa assay and the other for viability.
To the plate processed for AlphaLISA was added 5 μL per well Cell-Histone Lysis buffer (1×) (Catalog #AL009F1 Perkin Elmer; Waltham, Mass.) and the plate was incubated at RT for 30 minutes on a plate shaker with low speed (Model#4625-Q Thermo Scientific; Waltham, Mass.). Then, 10 µL per well Histone Extraction buffer (catalog #AL009F2: Perkin Elmer; Waltham, Mass.) was added and the plate further incubated at RT for 20 min on plate shaker with low speed. To each well was then added 10 μL per well of a 5× mix of anti-K27me3 acceptor beads plus Biotinylated anti-Histone H3 (C-ter) Antibody (diluted to 3 nM final) (Catalog #AL118 Perkin Elmer; Waltham, Mass.). Dilution of the acceptor beads and then anti-Histone H3 was with 1× Histone Detection buffer (Catalog #AL009F3 Perkin Elmer; Waltham, Mass.) which was produced diluted from the 10× stock provided. The plate was sealed with an aluminum plate sealer and incubated at 23° C. for 60 min. We then added 10 μL 5× solution of Streptavidin Donor beads (Catalog #6760002 Perkin Elmer; Waltham, Mass.) (20 μg/mL final in 1× Histone Detection Buffer), sealed the plate with Aluminum plate sealer and incubated at 23° C. for 30 min. The plates were then read using an EnVision-Alpha Reader (model #2104 Perkin Elmer: Waltham, Mass.).
Data from both assays was analyzed using Assay Assistant (Constellation Pharmaceuticals In-house product) and Activity Base (IDBS Ltd. Surrey, UK) template. Data files were imported to Assay Assistant and assay conditions were specified. A unique Analysis ID was created and the data files exported to Activity Base. An analysis template was created on Activity Base to measure dose-dependent inhibition of H3K27me3 mark and cell viability respectively. Readout of DMSO wells were used to normalize the data. Resulting curves were fitted using Activity base software Model 205 (IDBS Ltd, Surrey, UK). The data was checked for quality, validated and integrated in excel format using SARview (IDBS Ltd, Surrey, UK).

[3] = target: Y641N EZH2 (Homo sapiens, UniProt Q15910, Y641N); assay: Y641N EZH2 assay: as EZH2 assay, with reconstituted H3K27Me2 oligonucleosomes as substrate; assay type: biochemical
[4] = system: H3K27me3 mark in HeLa cells; assay: H3K27me3 MSD Hela Assay; assay type: cell-based; details: read-out: H3K27me3_MSD_HeLa_ (EC50)
Procedure, shortened: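 HeLa cells treated with compound at various concentrations for 96 h at 37 °C, then lysed with high-salt extraction. H3K27me3 measured by MSD electrochemiluminescence immunoassay on total-H3 capture plates. Dose-dependent inhibition normalised to DMSO wells and fitted to curves.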

[5] = EZH2 IC50, wild-type EZH2 (rPRC2)
[6] = Y641N EZH2 IC50, Y641N mutant EZH2, H3K27Me2 oligonucleosome substrate
[7] = wild-type EZH2 (rPRC2), read-out: EZH2 IC50
[8] = Y641N mutant EZH2, H3K27Me2 oligonucleosome substrate, read-out: Y641N EZH2 IC50

Chain of EZH2 (rPRC2) (Q15910 whole entry): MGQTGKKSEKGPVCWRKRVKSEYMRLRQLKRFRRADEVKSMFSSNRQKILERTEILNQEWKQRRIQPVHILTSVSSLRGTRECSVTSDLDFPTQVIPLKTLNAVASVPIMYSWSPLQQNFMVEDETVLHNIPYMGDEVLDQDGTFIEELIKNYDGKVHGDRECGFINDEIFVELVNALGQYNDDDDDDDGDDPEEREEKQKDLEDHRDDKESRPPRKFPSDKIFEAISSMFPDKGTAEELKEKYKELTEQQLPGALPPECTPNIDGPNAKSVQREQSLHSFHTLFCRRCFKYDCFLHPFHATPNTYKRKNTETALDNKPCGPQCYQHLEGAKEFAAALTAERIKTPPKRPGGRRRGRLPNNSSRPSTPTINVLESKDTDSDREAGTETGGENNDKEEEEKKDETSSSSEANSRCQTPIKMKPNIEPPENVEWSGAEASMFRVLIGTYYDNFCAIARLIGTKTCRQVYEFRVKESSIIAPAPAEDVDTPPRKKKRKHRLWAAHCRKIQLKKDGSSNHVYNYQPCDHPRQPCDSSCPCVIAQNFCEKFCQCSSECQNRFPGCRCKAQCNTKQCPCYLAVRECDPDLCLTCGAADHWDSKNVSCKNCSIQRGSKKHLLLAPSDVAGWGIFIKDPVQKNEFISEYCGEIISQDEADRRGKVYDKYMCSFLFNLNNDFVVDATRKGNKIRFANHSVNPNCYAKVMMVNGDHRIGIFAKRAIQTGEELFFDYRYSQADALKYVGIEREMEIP
Chain of EZH2 (rPRC2) (O75530 whole entry partner): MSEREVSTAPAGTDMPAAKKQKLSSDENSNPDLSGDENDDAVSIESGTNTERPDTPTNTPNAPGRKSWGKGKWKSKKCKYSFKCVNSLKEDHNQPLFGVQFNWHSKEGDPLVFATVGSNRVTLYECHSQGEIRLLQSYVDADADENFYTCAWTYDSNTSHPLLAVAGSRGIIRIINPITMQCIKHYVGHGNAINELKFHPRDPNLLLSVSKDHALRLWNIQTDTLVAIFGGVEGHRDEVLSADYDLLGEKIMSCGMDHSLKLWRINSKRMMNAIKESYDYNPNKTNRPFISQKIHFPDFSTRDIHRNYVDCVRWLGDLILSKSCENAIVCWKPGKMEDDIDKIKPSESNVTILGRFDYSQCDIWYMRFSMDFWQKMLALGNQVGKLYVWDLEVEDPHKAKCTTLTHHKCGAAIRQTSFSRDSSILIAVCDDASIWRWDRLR
Chain of EZH2 (rPRC2) (Q15022 whole entry partner): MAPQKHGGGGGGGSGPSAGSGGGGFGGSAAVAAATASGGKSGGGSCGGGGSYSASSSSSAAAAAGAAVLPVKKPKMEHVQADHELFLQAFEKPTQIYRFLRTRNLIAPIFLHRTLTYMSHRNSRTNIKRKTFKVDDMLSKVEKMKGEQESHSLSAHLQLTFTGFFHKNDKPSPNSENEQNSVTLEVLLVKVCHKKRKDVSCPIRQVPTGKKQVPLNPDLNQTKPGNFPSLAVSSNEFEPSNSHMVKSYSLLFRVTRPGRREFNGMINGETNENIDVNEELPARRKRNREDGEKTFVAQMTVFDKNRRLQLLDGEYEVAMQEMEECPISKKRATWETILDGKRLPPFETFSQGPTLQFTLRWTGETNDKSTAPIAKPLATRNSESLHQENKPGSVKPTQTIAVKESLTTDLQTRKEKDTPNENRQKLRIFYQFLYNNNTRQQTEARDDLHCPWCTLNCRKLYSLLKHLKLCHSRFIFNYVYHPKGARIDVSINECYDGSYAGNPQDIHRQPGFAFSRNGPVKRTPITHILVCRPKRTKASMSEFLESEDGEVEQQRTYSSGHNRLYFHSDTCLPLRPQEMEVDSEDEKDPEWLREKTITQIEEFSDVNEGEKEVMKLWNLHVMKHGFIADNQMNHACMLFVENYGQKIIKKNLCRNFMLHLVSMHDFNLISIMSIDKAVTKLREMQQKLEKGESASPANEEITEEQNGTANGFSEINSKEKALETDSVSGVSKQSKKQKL
Chain of Y641N EZH2 (Q15910 whole entry Y641N): as the sequence (Q15910 whole entry) above, with Y641N counted along it
Chain of Y641N EZH2 (O75530 whole entry partner): as the sequence (O75530 whole entry partner) above
Chain of Y641N EZH2 (Q15022 whole entry partner): as the sequence (Q15022 whole entry partner) above

`COc1cc(C)[nH]c(=O)c1CNC(=O)c1c(C)n(C(C)C2CCNCC2)c2ncncc12` (racemic) [Compound 333, (±)-N-((4-methoxy-6-methyl-2-oxo-1,2-dihydropyridin-3-yl)methyl)-6-methyl-7-(1-(piperidin-4-yl)ethyl)-7H-pyrrolo[2,3-d]pyrimidine-5-carboxamide] was tested, and the pIC50 [1, 5] was greater than 7.00, the pEC50 [2] was 5.70 to 6.40 and the pIC50 [3, 6] was 6.00 to 7.00.

`CCC(C)n1c(C)c(C(=O)NCc2c(OC)cc(C)[nH]c2=O)c2ccc(-c3ccc(N4CCNCC4)nc3)cc21` (racemic) [Compound 349, (±)-1-(sec-butyl)-N-((4-methoxy-6-methyl-2-oxo-1,2-dihydropyridin-3-yl)methyl)-2-methyl-6-(6-(piperazin-1-yl)pyridine-3-yl)-1H-indole-3-carboxamide] was tested, and the pIC50 [1, 5] was greater than 7.00, the pEC50 [2] was 5.00 to 5.70 and the pIC50 [3, 6] was greater than 7.00.

Work on `COc1cc(C)[nH]c(=O)c1CNC(=O)c1c(C)n(C(C)C2CCN(S(C)(=O)=O)CC2)c2ccccc12` (single isomer, unassigned) [Compound 336, (R or S)-N-((4-methoxy-6-methyl-2-oxo-1,2-dihydropyridin-3-methyl)-2 methyl-1-(1-(1-(methylsulfonyl)piperidin-4-yl)ethyl)-1 H-indole-3-carboxamide] yielded a pEC50 [2] greater than 6.40.

In the case of `COc1cc(C)[nH]c(=O)c1CNC(=O)c1c(C)n(C(C)C2CCN(C(=O)C(C)(C)O)CC2)c2ccccc12` (single isomer, unassigned) [Compound 337, (R or S)-1-(1-(1-(2-hydroxy-2-methylpropanoyl)piperidin-4-yl)ethyl)-N-((4-methoxy-6-methyl-2-oxo-1,2-dihydropyridin-3-yl)methyl)-2-methyl-IH-indole-3-carboxamide], the pEC50 [2] was greater than 6.40.

`COc1cc(C)[nH]c(=O)c1CNC(=O)c1c(C)n(C(C)C2CCN(C3COC3)CC2)c2ccccc12` (single isomer, unassigned) [Compound 341, (R or S)-N-((4-methoxy-6-methyl-2-oxo-1,2dihydropyridin-3-yl)methyl)-2-methyl-1-(1-(1-(oxctan-3-yl)piperidin-4-yl)ethyl)-1 H-indole-3-carboxamide] was tested, and the pEC50 [2] was greater than 6.40.

For `COc1cc(C)[nH]c(=O)c1CNC(=O)c1c(C)n(C(C)C2CCN(C(=O)C(C)C)CC2)c2ccccc12` (single isomer, unassigned) [Compound 342, (R or S)-1-(1-(1-isobulyrylpiperidin-4-yl)ethyl)-N-((4-methoxy-6-methyl-2-oxo-1,2-dihydropyridin-3-yl)methyl)-2-methyl-1H-indole-3-carboxamide], the pEC50 [2] was greater than 6.40.

`Cc1cc(OC(F)F)c(CNC(=O)c2c(C)n(C(C)C3CCN(S(C)(=O)=O)CC3)c3ccccc23)c(=O)[nH]1` (single isomer, unassigned) [Compound 344, (R or S)-N((4-(difluoromethoxy)-6-methyl-2-oxo-1,2-dihydropyridin-3-yl)methyl)-2-methy1-1-(1-(1-(methylsulfonyl)piperidin-4-yl)ethyl)-1H-indole-3-carboxamide] showed a pEC50 [2] greater than 6.40.

With `COCCN1CCC(C(C)n2c(C)c(C(=O)NCc3c(OC)cc(C)[nH]c3=O)c3ccccc32)CC1` (single isomer, unassigned) [Compound 359, (R or S)-N-((4-methoxy-6-methyl-2-oxo-1,2-dihysropyridin-3-yl)methyl)-1-(1-(1-(2-methoxyethyl)piperidin-4-yl)ethyl)-2-methyl-1 H-indole-3-carboxamide] the pEC50 [2] was 5.70 to 6.40.

With `COc1cc(C)[nH]c(=O)c1CNC(=O)c1c(C)n(C(C)C2CCN(CC(F)(F)F)CC2)c2ccccc12` (single isomer, unassigned) [Compound 365, (R or S)-N-((4-methoxy-6-methyl-2-oxo-1,2-dihydropyridin-3-yl)methyl)-2-methyl-1-(1-(1-(2,2,2-trifluoroethyl)piperidin-4-yl)ethyl)-1H-indole-3-carboxamide] the pEC50 [2] was greater than 6.40.

In the case of `CCc1cc(C)[nH]c(=O)c1CNC(=O)c1c(C)n(C(C)C2CCN(C)CC2)c2ccccc12` (single isomer, unassigned) [Compound 366, (R or S)-N-((4-ethyl-6-methyl-2-oxo-1,2-dihydropyridin-3-yl)methyl)-2-methyl-1-(1-(1-methylpiperidin-4-yl)ethyl-1 H-indole-3-carboxamide], the pEC50 [2] was 5.70 to 6.40.

In the case of `Cc1cc(C)c(CNC(=O)c2c(C)n(C(C)C3CCN(C)CC3)c3ccccc23)c(=O)[nH]1` (single isomer, unassigned) [Compound 367, (R or S)-N-((4,6-dimethyl-2-oxo-1,2-dihydropyridin-3-yl)methyl)-2-methyl-1-(1-(1-methylpiperidin-4-yl)ethyl)-1 H-indole-3-carboxamide], the pEC50 [2] was greater than 6.40.

In the case of `CCS(=O)(=O)N1CCC(C(C)n2c(C)c(C(=O)NCc3c(C)cc(C)[nH]c3=O)c3ccccc32)CC1` (single isomer, unassigned) [Compound 368, (R or S)-N-(4,6-dimethyl-2-oxo-1,2-dihydropyridin-3-yl)methyl)-1-(1-(1-(ethylsulfonyl)piperidin-4-yl)ethyl)-2-methyl-1 H-indole-3-carboxamide], the pEC50 [2] was greater than 6.40.

`Cc1cc(C)c(CNC(=O)c2c(C)n(C(C)C3CCN(C4COC4)CC3)c3ccccc23)c(=O)[nH]1` (single isomer, unassigned) [Compound 375, (R or S)-N-((4,6-dimethyl-2-oxo-1,2-dihydropyridin-3-yl)methyl)-2-methyl-1-(1-(1-(oxctan-3-yl)piperidin-4-yl)ethyl)-1 H-indole-3-carboxamide] was tested, and the pEC50 [2] was greater than 6.40.

Work on `COc1cc(C)[nH]c(=O)c1CNC(=O)c1c(C)n(C(C)C2CCCNC2)c2ccccc12` (centres unmarked) [Compound 315, N-((4-methoxy-6-methyl-2-oxo-1,2-dihydropyridin-3-yl)methyl)-2-methyl-1-(1-(piperidin-3-yl)ethyl)-1H-indole-3-carboxamide] yielded a pEC50 ([4]; Homo sapiens, HeLa, 96 h) of less than 5.00, a pIC50 [1, 5] greater than 7.00 and a pIC50 [3, 6] of 6.00 to 7.00.

Work on `COc1cc(C)[nH]c(=O)c1CNC(=O)c1c(C)n(C(C)C2CCCN(S(C)(=O)=O)C2)c2ccccc12` (centres unmarked) [Compound 318] yielded a pEC50 ([4]; Homo sapiens, HeLa, 96 h) of less than 5.00, a pIC50 [1, 5] greater than 7.00 and a pIC50 [3, 6] greater than 7.00.

`COc1cc(C)[nH]c(=O)c1CNC(=O)c1c(C)n(C2CCCC2)c2ccccc12` [Compound 324, 1-cyclopentyl-N-((4-methoxy-6-methyl-2-oxo-1,2-dihydropyridin-3-yl)methyl)-2-methyl-1H-indole-3-carboxamide] was tested, and the pEC50 ([4]; Homo sapiens, HeLa, 96 h) was 5.00 to 5.70, the pIC50 [1, 5] was greater than 7.00 and the pIC50 [3, 6] was 6.00 to 7.00.

In the case of `Cc1cc(C)c(CNC(=O)c2c(C)n([C@H](C)c3ccccc3)c3ncncc23)c(O)n1` [Compound 395, (R)—N-((2-hydroxy-4,6-dimethylpyridin-3-yl)methyl)-6-methyl-7-(1-phenylethyl)-7H-pyrrolo[2,3-d]pyrimidine-5-carboxamide], the pEC50 ([4]; Homo sapiens, HeLa, 96 h) was 5.00 to 5.70, the pIC50 [1, 5] was greater than 7.00 and the pIC50 [3, 6] was 6.00 to 7.00.

Work on “(±)-1-(1-(3-cyanophenyl)ethyl)-N-(4,6-dimethyl-2-oxo-1,2-dihydropyridin-3-yl)-2-methyl-1H-indole-3-carboxamide [Compound 175]” yielded a pEC50 ([4]; HeLa cells, MSD, 96 hours) of 5.70 to 6.40, a pIC50 [1, 7] greater than 7.00 and a pIC50 [3, 8] greater than 7.00.

“N-((4-methoxy-6-methyl-2-oxo-1,2-dihydropyridin-3-yl)methyl)-2-methyl-1-(1-(1-(methylsulfonyl)piperidin-3-yl)ethyl)-1H-indole-3-carboxamide [Compound 320]” was tested, and the pEC50 ([4]; HeLa cells, MSD, 96 hours) was 5.70 to 6.40, the pIC50 [1, 7] was greater than 7.00 and the pIC50 [3, 8] was greater than 7.00.
